Laboratory results taken from ChEMBL document CHEMBL5154670, “Discovery of selective irreversible inhibitors of B-Lymphoid tyrosine kinase (BLK)” (Eur J Med Chem, 2022).
Blank lines part the entries; values can stand above or below the compound they belong to. Active and inactive are the calls of the source. The rule behind the calls is not given here.

Legend:
[1] = target: T1, Tyrosine-protein kinase BTK (Homo sapiens, UniProt Q06187); assay: Inhibition of wild type N-terminal GST tagged BTK (unknown origin) (2 to 659 residues) expressed in sf21 insect cell using TK as substrate incubated for 50 mins in presence of ATP by HTRF assay
[2] = target: T1, Tyrosine-protein kinase BTK; assay: Time dependent inhibition of wild type N-terminal GST tagged BTK (unknown origin) (2 to 659 residues) expressed in sf21 insect cell using TK as substrate in presence of ATP by HTRF assay; settings: time 50.0 min, TDE = time-dependent effect
[3] = target: T1, Tyrosine-protein kinase BTK; assay: (§1) Inhibition of (S)-3-(3-(5-acrylamido-6-(3-(5-(2-methyl-5-(3-(trifluoromethyl)benzamido)benzamido)pyrimidin-2-ylamino)phenylamino)-6-oxohexylamino)-3-oxopropyl)-5,5-difluoro-7,9-dimethyl-5H-dipyrrolo[1,2-c:1',2'-f][1,3,2]diazaborinin-4-ium-5-uide binding to BTK in human NAMALVA cells preincubated for 1 hr followed by compound washout for three times and treated with probe for 1 hr by competitive labeling assay; format: cell-based
Homo sapiens = species on record: Homo sapiens; assay: Selectivity ratio, ratio of IC50 for inhibition of BTK (unknown origin) to IC50 for inhibition of BLK (unknown origin)
[4] = target: Tyrosine-protein kinase Lyn (Homo sapiens) (UniProt P07948); assay: Inhibition of LYN (unknown origin) relative to control; settings: concentration not given here
[5] = target: T2, Tyrosine-protein kinase Blk (Homo sapiens, UniProt P51451); assay: Inhibition of wild type N-terminal GST tagged BLK (unknown origin) (1 to 505 residues) expressed in sf21 insect cell using TK as substrate incubated for 50 mins in presence of ATP by HTRF assay
Target sequence in this assay (P51451 whole entry, the tested form may be a part): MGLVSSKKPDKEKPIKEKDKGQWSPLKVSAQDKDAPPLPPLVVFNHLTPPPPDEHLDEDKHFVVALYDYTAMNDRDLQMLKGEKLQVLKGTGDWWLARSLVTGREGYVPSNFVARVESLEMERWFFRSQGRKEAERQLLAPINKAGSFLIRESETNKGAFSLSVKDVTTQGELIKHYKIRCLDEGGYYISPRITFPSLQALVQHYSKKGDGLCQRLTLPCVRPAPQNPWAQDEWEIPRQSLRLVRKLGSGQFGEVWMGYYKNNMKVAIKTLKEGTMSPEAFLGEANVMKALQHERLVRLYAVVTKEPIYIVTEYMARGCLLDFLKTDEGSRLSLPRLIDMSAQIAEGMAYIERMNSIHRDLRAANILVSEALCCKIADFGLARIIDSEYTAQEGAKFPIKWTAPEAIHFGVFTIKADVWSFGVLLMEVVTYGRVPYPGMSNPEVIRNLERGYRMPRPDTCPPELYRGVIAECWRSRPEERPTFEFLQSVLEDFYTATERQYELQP

[6] = target: Mitogen-activated protein kinase 14 (Homo sapiens) (UniProt Q16539); assay: Inhibition of p38alpha (unknown origin) relative to control; settings: concentration not given here
[7] = target: Tyrosine-protein kinase CSK (Homo sapiens) (UniProt P41240); assay: Inhibition of CSK (unknown origin) relative to control; settings: concentration not given here
[8] = target: T2, Tyrosine-protein kinase Blk; assay: as §1, with “BLK” for “BTK”; format: cell-based
Target sequence in this assay (P51451 whole entry, the tested form may be a part): as above

HEK293 = assay: as §1, with “BLK C319A mutant over expressed” for “BTK”, “HEK293” for “human NAMALVA”; format: cell-based; settings: Homo sapiens
[9] = target: T2, Tyrosine-protein kinase Blk; assay: as §1, with “wild type BLK over expressed” for “BTK”, “HEK293” for “human NAMALVA”; format: cell-based
Target sequence in this assay (P51451 2-505 limits assumed): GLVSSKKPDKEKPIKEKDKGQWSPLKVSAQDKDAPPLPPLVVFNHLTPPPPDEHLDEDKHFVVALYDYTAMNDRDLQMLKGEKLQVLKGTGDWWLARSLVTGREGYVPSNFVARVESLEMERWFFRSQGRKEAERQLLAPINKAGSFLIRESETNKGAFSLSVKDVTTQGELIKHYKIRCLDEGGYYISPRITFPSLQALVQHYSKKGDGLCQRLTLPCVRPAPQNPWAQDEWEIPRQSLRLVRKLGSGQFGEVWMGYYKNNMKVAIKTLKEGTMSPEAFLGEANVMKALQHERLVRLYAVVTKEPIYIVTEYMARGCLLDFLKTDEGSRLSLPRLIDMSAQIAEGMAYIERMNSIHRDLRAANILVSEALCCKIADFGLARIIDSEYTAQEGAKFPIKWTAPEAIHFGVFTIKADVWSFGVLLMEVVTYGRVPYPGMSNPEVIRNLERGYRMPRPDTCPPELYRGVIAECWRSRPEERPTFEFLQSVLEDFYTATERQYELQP

Pfeiffer = assay: Antiproliferative activity against human Pfeiffer cells assessed as cell growth inhibition incubated for 72 hrs by celltiter-glo luminescent cell viability assay; format: functional
DOHH-2 [10] = assay: Downregulation of CDK2 expression in human DOHH-2 cells at 0.1 to 0.3 uM incubated for 24 hrs by Western blot analysis; format: functional, cell-based; settings: dose 0.1-0.3 µM
[11] = target: T2, Tyrosine-protein kinase Blk; assay: Inhibition of BLK (unknown origin) at 0.3 uM relative to control
Target sequence in this assay (P51451 2-505 limits assumed): as above

[12] = Antiproliferative activity against HEK293 cells assessed as cell growth inhibition incubated for 72 hrs by celltiter-glo luminescent cell viability assay; format: toxicity, cell-based; settings: human
[13] = target: T2, Tyrosine-protein kinase Blk; assay: Irreversible inhibition of wild type N-terminal GST tagged BLK (unknown origin) (1 to 505 residues) expressed in sf21 insect cell at 3 uM incubated for 4 hrs and measured after 48 hrs dialysis
Target sequence in this assay (P51451 2-505 limits assumed): as above

HCT-116 = assay: Antiproliferative activity against human HCT-116 cells assessed as cell growth inhibition incubated for 72 hrs by celltiter-glo luminescent cell viability assay; format: functional
[14] = target: T1, Tyrosine-protein kinase BTK; assay: Inhibition of BTK (unknown origin) at 0.3 uM relative to control
[15] = Antiproliferative activity against human PBMC cells assessed as cell growth inhibition incubated for 72 hrs by celltiter-glo luminescent cell viability assay; format: toxicity, cell-based
SU-DHL-6 [16] = assay: Downregulation of CDK2 expression in human SU-DHL-6 cells at 0.3 uM incubated for 24 hrs by Western blot analysis; format: functional, cell-based
MOLT-4 = assay: Antiproliferative activity against human MOLT-4 cells assessed as cell growth inhibition incubated for 72 hrs by celltiter-glo luminescent cell viability assay; format: functional
[17] = target: Tyrosine-protein kinase TXK (Homo sapiens) (UniProt P42681); assay: Inhibition of TXK (unknown origin) at 0.3 uM relative to control
DOHH-2 [18] = assay: Antiproliferative activity against human DOHH-2 cells assessed as cell growth inhibition incubated for 72 hrs by celltiter-glo luminescent cell viability assay; format: functional
[19] = target: Tyrosine-protein kinase ITK/TSK (Homo sapiens) (UniProt Q08881); assay: Inhibition of ITK (unknown origin) at 0.3 uM relative to control
[20] = target: Cytoplasmic tyrosine-protein kinase BMX (Homo sapiens) (UniProt P51813); assay: Inhibition of BMX (unknown origin) at 0.3 uM relative to control
[21] = Downregulation of CDK2 expression in human SU-DHL-6 cells at 0.3 uM preincubated for 1 hr followed by compound washout for 11 hrs and further incubated for 1 hr with compound followed by second washout for 11hrs by Western blot analysis; format: functional; settings: time 2 hrs
[22] = target: T1, Tyrosine-protein kinase BTK; assay: Inhibition of BTK in goat anti-human IgM antibody stimulated human Ramos cells assessed as BTK autophosphorylation at […] residue preincubated for 1 hr followed by antibody stimulation by Western blot analysis; format: cell-based
A-431 = assay: Antiproliferative activity against human A-431 cells assessed as cell growth inhibition incubated for 72 hrs by celltiter-glo luminescent cell viability assay; format: functional
TMD8 = assay: Antiproliferative activity against human TMD8 cells assessed as cell growth inhibition incubated for 72 hrs by celltiter-glo luminescent cell viability assay; format: functional
A-375 = assay: Antiproliferative activity against human A-375 cells assessed as cell growth inhibition incubated for 72 hrs by celltiter-glo luminescent cell viability assay; format: functional
[23] = target: Epidermal growth factor receptor (Homo sapiens) (UniProt P00533); assay: Inhibition of EGFR (unknown origin) at 0.3 uM relative to control
[24] = target: T1, Tyrosine-protein kinase BTK; assay: Inhibition of BTK in goat anti-human IgM antibody stimulated human Ramos cells assessed as PLCgamma2 phosphorylation preincubated for 1 hr followed by antibody stimulation by Western blot analysis; format: cell-based
MDA-MB-453 = assay: Antiproliferative activity against human MDA-MB-453 cells assessed as cell growth inhibition incubated for 72 hrs by celltiter-glo luminescent cell viability assay; format: functional
[25] = target: Receptor tyrosine-protein kinase erbB-4 (Homo sapiens) (UniProt Q15303); assay: Inhibition of HER4 (unknown origin) at 0.3 uM relative to control
[26] = Antiproliferative activity against human HBL1 cells assessed as cell growth inhibition incubated for 72 hrs by celltiter-glo luminescent cell viability assay; format: functional
[27] = target: Tyrosine-protein kinase Tec (Homo sapiens) (UniProt P42680); assay: Inhibition of TEC (unknown origin) at 0.3 uM relative to control
SU-DHL10 = assay: Antiproliferative activity against human SU-DHL-10 cells assessed as cell growth inhibition incubated for 72 hrs by celltiter-glo luminescent cell viability assay; format: functional
OCI-Ly7 = assay: Antiproliferative activity against human OCILY7 cells assessed as cell growth inhibition incubated for 72 hrs by celltiter-glo luminescent cell viability assay; format: functional
A549 = assay: Antiproliferative activity against human A549 cells assessed as cell growth inhibition incubated for 72 hrs by celltiter-glo luminescent cell viability assay; format: functional
[28] = target: Receptor tyrosine-protein kinase erbB-2 (Homo sapiens) (UniProt P04626); assay: Inhibition of HER2 (unknown origin) at 0.3 uM relative to control
Jurkat = assay: Antiproliferative activity against human Jurkat cells assessed as cell growth inhibition incubated for 72 hrs by celltiter-glo luminescent cell viability assay; format: functional
[29] = target: T2, Tyrosine-protein kinase Blk; assay: Inhibition of BLK in goat anti-human IgM antibody stimulated human Ramos cells assessed as BLK autophosphorylation at Tyr 389 residue at 0.3 uM preincubated for 1 hr followed by compound washout for 2 hrs and antibody stimulation by Western blot analysis; format: cell-based
Target sequence in this assay (P51451 2-505 limits assumed): as above

SU-DHL-6 [30] = assay: Antiproliferative activity against human SU-DHL-6 cells assessed as cell growth inhibition incubated for 72 hrs by celltiter-glo luminescent cell viability assay; format: functional
SU-DHL-6 [31] = assay: Downregulation of CDK2 expression in human SU-DHL-6 cells at 0.1 to 0.3 uM incubated for 24 hrs by Western blot analysis; format: functional, cell-based; settings: dose 0.1-0.3 µM

T1 sequence (Q06187 whole entry, the tested form may be a part): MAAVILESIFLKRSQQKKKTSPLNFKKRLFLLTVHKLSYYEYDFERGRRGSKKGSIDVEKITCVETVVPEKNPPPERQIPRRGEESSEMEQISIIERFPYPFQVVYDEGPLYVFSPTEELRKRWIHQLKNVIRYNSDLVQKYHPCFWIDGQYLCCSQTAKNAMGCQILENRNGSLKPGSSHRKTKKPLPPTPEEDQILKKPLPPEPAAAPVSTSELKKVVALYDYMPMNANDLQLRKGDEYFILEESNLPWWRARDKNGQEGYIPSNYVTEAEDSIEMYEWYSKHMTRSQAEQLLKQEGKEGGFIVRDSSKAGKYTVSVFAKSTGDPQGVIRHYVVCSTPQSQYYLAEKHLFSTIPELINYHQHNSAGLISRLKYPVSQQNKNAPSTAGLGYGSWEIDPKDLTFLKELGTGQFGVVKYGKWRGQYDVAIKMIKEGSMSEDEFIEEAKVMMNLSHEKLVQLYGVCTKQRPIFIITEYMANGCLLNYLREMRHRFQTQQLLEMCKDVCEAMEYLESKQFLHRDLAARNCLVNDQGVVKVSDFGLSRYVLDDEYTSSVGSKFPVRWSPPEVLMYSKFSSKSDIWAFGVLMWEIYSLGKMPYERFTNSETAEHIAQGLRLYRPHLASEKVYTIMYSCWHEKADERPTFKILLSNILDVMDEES
Chain of Tyrosine-protein kinase TXK (Homo sapiens) (P42681 whole entry): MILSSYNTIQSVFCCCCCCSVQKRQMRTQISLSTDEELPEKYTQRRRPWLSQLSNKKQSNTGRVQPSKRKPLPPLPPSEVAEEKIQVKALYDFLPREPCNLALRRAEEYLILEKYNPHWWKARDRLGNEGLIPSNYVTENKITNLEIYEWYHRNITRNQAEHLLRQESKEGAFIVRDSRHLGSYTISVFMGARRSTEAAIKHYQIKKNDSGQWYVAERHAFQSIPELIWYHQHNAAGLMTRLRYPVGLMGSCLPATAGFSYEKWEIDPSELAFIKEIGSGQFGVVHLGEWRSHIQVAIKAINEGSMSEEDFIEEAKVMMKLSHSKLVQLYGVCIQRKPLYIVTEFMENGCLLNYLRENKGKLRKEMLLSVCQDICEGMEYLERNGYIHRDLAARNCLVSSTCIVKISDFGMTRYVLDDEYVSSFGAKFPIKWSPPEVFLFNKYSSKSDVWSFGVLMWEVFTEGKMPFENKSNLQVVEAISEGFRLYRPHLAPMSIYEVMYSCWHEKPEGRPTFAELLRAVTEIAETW
Chain of Mitogen-activated protein kinase 14 (Homo sapiens) (Q16539 whole entry): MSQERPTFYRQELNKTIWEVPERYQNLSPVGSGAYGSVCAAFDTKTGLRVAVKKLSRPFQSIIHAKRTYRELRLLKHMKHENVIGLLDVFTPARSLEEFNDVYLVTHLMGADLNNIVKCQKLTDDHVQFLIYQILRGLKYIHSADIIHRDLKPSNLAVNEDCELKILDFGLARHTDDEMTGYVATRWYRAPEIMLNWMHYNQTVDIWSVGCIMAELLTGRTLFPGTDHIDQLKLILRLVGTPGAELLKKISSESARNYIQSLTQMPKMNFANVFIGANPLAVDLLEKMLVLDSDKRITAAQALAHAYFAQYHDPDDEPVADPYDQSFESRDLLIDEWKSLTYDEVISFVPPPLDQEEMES
Chain of Tyrosine-protein kinase CSK (Homo sapiens) (P41240 2-450 limits assumed): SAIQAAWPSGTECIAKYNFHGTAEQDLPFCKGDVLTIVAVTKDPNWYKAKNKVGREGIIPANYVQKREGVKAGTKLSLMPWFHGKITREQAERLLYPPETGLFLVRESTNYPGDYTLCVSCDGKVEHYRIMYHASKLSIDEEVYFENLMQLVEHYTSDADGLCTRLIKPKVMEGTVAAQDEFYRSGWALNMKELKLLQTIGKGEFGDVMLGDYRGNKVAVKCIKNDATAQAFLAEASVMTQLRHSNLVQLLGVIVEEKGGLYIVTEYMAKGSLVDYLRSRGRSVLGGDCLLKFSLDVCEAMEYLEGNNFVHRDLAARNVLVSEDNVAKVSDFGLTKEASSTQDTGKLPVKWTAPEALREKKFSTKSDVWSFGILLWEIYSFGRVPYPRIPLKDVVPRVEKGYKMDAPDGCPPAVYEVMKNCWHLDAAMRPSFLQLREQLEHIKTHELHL
Chain of Tyrosine-protein kinase Lyn (Homo sapiens) (P07948 2-512 limits assumed): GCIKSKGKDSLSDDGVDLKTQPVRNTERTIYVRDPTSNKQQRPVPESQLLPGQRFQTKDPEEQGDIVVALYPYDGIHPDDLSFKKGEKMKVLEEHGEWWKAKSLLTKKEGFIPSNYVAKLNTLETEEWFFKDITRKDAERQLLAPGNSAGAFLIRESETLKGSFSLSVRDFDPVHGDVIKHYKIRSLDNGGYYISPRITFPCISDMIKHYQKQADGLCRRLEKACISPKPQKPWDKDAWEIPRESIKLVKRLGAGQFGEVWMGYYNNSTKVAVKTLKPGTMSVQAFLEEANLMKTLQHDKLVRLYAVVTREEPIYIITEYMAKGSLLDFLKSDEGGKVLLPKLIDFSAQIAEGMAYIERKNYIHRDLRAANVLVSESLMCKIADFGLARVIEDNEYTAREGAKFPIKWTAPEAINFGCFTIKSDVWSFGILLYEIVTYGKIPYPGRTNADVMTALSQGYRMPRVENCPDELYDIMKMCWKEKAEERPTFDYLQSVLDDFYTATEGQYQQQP
Chain of Receptor tyrosine-protein kinase erbB-4 (Homo sapiens) (Q15303 whole entry): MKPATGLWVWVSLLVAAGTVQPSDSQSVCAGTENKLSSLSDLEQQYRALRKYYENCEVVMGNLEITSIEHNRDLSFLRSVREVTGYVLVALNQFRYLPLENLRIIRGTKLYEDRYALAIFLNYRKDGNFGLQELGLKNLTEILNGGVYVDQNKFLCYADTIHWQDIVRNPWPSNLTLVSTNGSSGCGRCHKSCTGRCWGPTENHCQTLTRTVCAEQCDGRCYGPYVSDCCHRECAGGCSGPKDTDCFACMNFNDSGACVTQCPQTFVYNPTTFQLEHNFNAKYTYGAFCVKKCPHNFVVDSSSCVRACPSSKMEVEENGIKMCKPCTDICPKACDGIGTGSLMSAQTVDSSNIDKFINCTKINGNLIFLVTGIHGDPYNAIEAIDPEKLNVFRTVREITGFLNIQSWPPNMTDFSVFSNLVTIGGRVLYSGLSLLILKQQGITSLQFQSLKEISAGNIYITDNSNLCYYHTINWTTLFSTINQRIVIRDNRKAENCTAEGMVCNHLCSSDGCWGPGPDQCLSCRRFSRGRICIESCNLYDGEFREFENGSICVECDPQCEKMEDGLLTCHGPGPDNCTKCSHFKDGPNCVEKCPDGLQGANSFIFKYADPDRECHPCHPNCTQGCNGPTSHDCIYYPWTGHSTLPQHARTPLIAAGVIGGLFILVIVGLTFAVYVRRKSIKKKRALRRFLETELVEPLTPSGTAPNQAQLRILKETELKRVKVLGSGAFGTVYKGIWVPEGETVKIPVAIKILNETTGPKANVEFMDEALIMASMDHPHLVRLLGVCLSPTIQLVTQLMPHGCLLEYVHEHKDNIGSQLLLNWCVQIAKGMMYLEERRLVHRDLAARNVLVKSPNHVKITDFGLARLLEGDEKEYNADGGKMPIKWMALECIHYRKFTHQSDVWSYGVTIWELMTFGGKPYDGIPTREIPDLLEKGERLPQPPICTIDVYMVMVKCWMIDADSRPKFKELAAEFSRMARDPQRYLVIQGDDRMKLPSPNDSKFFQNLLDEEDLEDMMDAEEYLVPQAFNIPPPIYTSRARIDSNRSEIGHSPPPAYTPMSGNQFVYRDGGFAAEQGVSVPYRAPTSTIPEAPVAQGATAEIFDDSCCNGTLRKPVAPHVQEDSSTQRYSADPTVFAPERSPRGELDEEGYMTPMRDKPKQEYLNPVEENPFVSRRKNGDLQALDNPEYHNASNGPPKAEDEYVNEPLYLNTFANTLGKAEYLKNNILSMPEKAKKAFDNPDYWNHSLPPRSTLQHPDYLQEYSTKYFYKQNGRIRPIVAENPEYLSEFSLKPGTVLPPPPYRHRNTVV

Structure (SMILES): Cc1ccc(NC(=O)c2cccc(-c3ccco3)c2)cc1C(=O)Nc1cnc(Nc2cccc(N)c2)nc1
- IC50 [1]: 360 nM

Structure (SMILES): Cc1ccc(NC(=O)c2cccc(C(F)(F)F)c2)cc1C(=O)Nc1cnc(Nc2cccc(N)c2)nc1
- IC50 [1]: 42.1 nM

Structure (SMILES): Cc1ccc(NC(=O)OCc2ccccc2)cc1C(=O)Nc1cnc(Nc2cccc(N)c2)nc1
- IC50 [1]: 444 nM

Structure (SMILES): C=CC(=O)Nc1cccc(Nc2ncc(NC(=O)c3cc(NC(=O)c4ccc5cnccc5c4)ccc3C)cn2)c1
- IC50 [1]: 56 nM
- inhibition [2]: Tde
- IC50 [3]: 110 nM

Structure (SMILES): C=CC(=O)N1CCC(Nc2cccc(Nc3ncc(NC(=O)c4cc(NC(=O)c5ccc6cnccc6c5)ccc4C)cn3)c2)CC1
- IC50 [1]: 58 nM
- Ratio IC50 (Homo sapiens): 6.6
- inhibition [4]: > 80%
- IC50 [5]: 8.8 nM
- inhibition [6]: > 80%
- inhibition [7]: > 80%
- IC50 [8]: 5.5 nM

Structure (SMILES): Cc1ccc(NC(=O)c2cccc(-c3ccc(F)nc3)c2)cc1C(=O)Nc1cnc(Nc2cccc(N)c2)nc1
- IC50 [1]: 507 nM

Structure (SMILES): Cc1ccc(NC(=O)c2ccc3cc(Br)ccc3c2)cc1C(=O)Nc1cnc(Nc2cccc(N)c2)nc1
- IC50 [1]: 145 nM

Structure (SMILES): Cc1ccc(NC(=O)c2ccc3cnccc3c2)cc1C(=O)Nc1cnc(Nc2cccc(NC3CCN(C(=O)CF)CC3)c2)nc1
- IC50 [1]: 63.4 nM

Structure (SMILES): Cc1ccc(NC(=O)c2ccc3cc4ccccc4cc3c2)cc1C(=O)Nc1cnc(Nc2cccc(N)c2)nc1
- IC50 [1]: 319 nM

Structure (SMILES): Cc1ccc(NC(=O)c2ccc(-c3ccccc3)cc2)cc1C(=O)Nc1cnc(Nc2cccc(N)c2)nc1
- IC50 [1]: 255 nM

Structure (SMILES): Cc1ccc(NC(=O)CC23CC4CC(CC(C4)C2)C3)cc1C(=O)Nc1cnc(Nc2cccc(N)c2)nc1
- IC50 [1]: 338 nM

Structure (SMILES): C=CC(=O)NCCC(=O)Nc1cccc(Nc2ncc(NC(=O)c3cc(NC(=O)c4ccc5cnccc5c4)ccc3C)cn2)c1
- IC50 [1]: 388 nM

More lines, main results first:

- IC50 [1]: 78.8 nM
Structure (SMILES): Cc1ccc(NC(=O)c2ccc3ccccc3c2)cc1C(=O)Nc1cnc(Nc2cccc(N)c2)nc1

- IC50 [1]: 660 nM
Structure (SMILES): Cc1ccc(NC(=O)c2cccc(-c3ccccc3)c2)cc1C(=O)Nc1cnc(Nc2cccc(N)c2)nc1

- IC50 [1]: 410 nM
Structure (SMILES): Cc1ccc(NC(=O)c2ccc3ncccc3c2)cc1C(=O)Nc1cnc(Nc2cccc(N)c2)nc1

- IC50 [1]: 694 nM
Structure (SMILES): Cc1ccc(NC(=O)c2cccc(-c3ccc(F)cc3)c2)cc1C(=O)Nc1cnc(Nc2cccc(N)c2)nc1

- IC50 [1]: 212 nM
Structure (SMILES): Cc1ccc(NC(=O)c2ccc3cc(O)ccc3c2)cc1C(=O)Nc1cnc(Nc2cccc(N)c2)nc1

- inhibition (HEK293): Active
- IC50 [5]: 18.8 nM
- IC50 [8]: 15 nM
- inhibition [9]: Active
Structure (SMILES): C=CC(=O)Nc1cccc(Nc2ncc(NC(=O)c3cc(NC(=O)c4cccc(C(F)(F)F)c4)ccc3C)cn2)c1

- IC50 [1]: 63.8 nM
Structure (SMILES): COc1ccc2cc(C(=O)Nc3ccc(C)c(C(=O)Nc4cnc(Nc5cccc(N)c5)nc4)c3)ccc2c1

- inhibition [11]: 101%
- inhibition [13]: Active
- GI50 (HCT-116): 8100 nM
- IC50 [1]: 202 nM
- inhibition [14]: 100%
- GI50 (MOLT-4): 18800 nM
- inhibition [17]: 83%
- Ratio IC50 (Homo sapiens): 34.2
- inhibition [19]: 5%
- inhibition [20]: 99%
- EC50 [22]: > 1000 nM
- GI50 (A-431): > 30000 nM
- GI50 (A-375): > 30000 nM
- inhibition [23]: 97%
- EC50 [24]: > 1000 nM
- GI50 (MDA-MB-453): > 30000 nM
- IC50 [5]: 5.9 nM
- inhibition [25]: 94%
- inhibition [27]: 19%
- GI50 (SU-DHL10): 560 nM
- GI50 (OCI-Ly7): 20 nM
- GI50 (A549): > 30000 nM
- inhibition [28]: 19%
- IC50 [8]: 12 nM
- GI50 (Jurkat): 10900 nM
- inhibition [29]: Active
- GI50 (SU-DHL-6 [30]): 130 nM
Structure (SMILES): Cc1ccc(NC(=O)c2ccc3cnccc3c2)cc1C(=O)Nc1cnc(Nc2cccc(NC3CCN(C(=O)/C=C/CN(C)C)CC3)c2)nc1
- GI50 (Pfeiffer): 2180 nM
- Activity (DOHH-2 [10]): Active
- GI50 at 72 h [12]: > 30000 nM
- GI50 at 72 h [15]: > 30000 nM
- Activity (SU-DHL-6 [16]): Active
- GI50 (DOHH-2 [18]): 16 nM
- Activity [21]: 55%
- GI50 (TMD8): 64 nM
- GI50 [26]: 1340 nM
- Activity (SU-DHL-6 [31]): Active

- IC50 [1]: 227 nM
Structure (SMILES): Cc1ccc(NC(=O)c2cccc(-c3cccnc3)c2)cc1C(=O)Nc1cnc(Nc2cccc(N)c2)nc1

- IC50 [1]: 407 nM
Structure (SMILES): Cc1ccc(NC(=O)c2ccc3cnccc3c2)cc1C(=O)Nc1cnc(Nc2cccc(N)c2)nc1
